Laboratory results taken from patent US12263156B2, “Use of small molecule inhibitors of the BfrB:Bfd interaction in biofilms” (priority 2020, dated 2025).

Tested on: P. aeruginosa PAO1
Test: Half maximal inhibitory concentration (IC50) of planktonic growth, CFU/mL enumeration
Assay type: cell-based, Pseudomonas aeruginosa
Settings: for IC50: Pseudomonas aeruginosa, PAO1, planktonic growth, 24 h, 35° C, defined media, 2% DMSO, average ± SD of three experiments
Procedure: Chemicals were purchased from Fisher Scientific (Waltham, MA) unless otherwise stated. P. aeruginosa PAO1 was obtained from the University of Washington Genome center.^80 The PAO1 strain expressing enhanced yellow fluorescent protein (EYFP) was prepared as described in Soldano, A.; Yao, H.; Chandler, J. R.; Rivera, M. (2020) Inhibiting Iron Mobilization from Bacterioferritin in Pseudomonas aeruginosa Impairs Biofilm Formation Irrespective of Environmental Iron Availability. ACS Infect. Dis. 6, 447-458. 10.1021/acsinfecdis.9b00398.^26 Clinical isolates of P. aeruginosa were purchased from JMI Laboratories (North Liberty, IA, USA). […] Starter cultures of P. aeruginosa PAO1 in 5 mL LB media were grown for 13 hours in 50 mL conical tubes at 37° C. and 220 rpm. For biofilm experiments, a EYFP-expressing P. aeruginosa strain was routinely grown in Pseudomonas Isolation (PI) media (20 g L^−1 peptone, 0.3 g L^−1 MgCl2·6H O, 10 g L^−1 K2SO4, 25 mg L^−1 irgasan, and 20 mL L^−1 glycerol, pH 7.0). Starter cultures were grown from a single colony at 37° C. and shaking at 220 rpm for 14 hours in 5 mL PI media supplemented with 10 μM Fe. Pellicle biofilms were cultured for 48 hours at 30° C. in PI media supplemented with 20 μM Fe. Surface-attached biofilms were cultured in AB minimal media^81 supplemented with trace metals [0.15 μM (NH4)2MoO4, 3 μM CuSO4, 2 μM Co(NO3)2, 9.4 μM Na2B4O7, and 7.6 μM ZnSO4], 3 mM glucose and 15 μM Fe. Iron supplementation was carried out by addition of a small volume of filter-sterilized 10 mM (NH4)2Fe(SO4)2 (pH˜2.0) solution. […]; IC50 values (Table 1 below) were determined as reported previously^25 with small modifications. In brief: precultures of P. aeruginosa PAO1 (5 mL) were grown in LB media for 13 hours at 37° C. and 220 rpm in 50 mL conical tubes (VWR International, PA). The cells were centrifuged for 5 min at 4,000 rpm and 4° C., washed two times and then diluted in buffer (100 mM KH2PO4 and 15 mM (NH4)2SO4 to an optical density at 600 nm (OD600) of 0.1. A small volume of compound stock solution (10 mM) was transferred to a microcentrifuge tube, initially diluted with DMSO to 20 μL, and then diluted to 1 mL with preculture cell suspension in defined media with OD600=0.0001, so the final DMSO concentration is 2%. The resultant cell suspension (200 μL) was transferred to a clear-bottom polystyrene 96-well plate (VWR International, PA) covered with a lid and incubated at 35° C. and 205 cpm for 24 h in a Synergy H1 microplate reader (Biotek Instruments Inc., Winooski, VT). The cell cultures were serially diluted and then plated on PI Agar (PIA; BD Biosciences, San Jose, CA) plates for enumeration of viable cells (CFU/mL). The % growth was calculated from the ratio CFU/mL(treated)/CFU/mL(untreated control). To calculate the IC50 values, the % growth was plotted as a function of compound concentration, expressed as log[compound] (μM), and fitted to the 4-parameter logistic model describing the sigmoid-shaped response pattern (equation 1),^83 where b is the slope factor, max is the upper asymptote (plateau), and min is the lower asymptote. Values are the average and standard deviation from three independent experiments.

Row | Compound | IC50 | fold lower IC50 relative to JAG-5-7 (relative to JAG-5-7) | fold decrease of IC50 relative to compound 16 (relative to compound 16)
1 | O=C1NC(=O)c2c(NCc3cc(Cl)ccc3O)cccc21 [KM-5-25] | 69 ± 7 µM | ~2 fold | 
2 | O=C1NC(=O)c2c(NCCCc3cc(O)cc(Cl)c3)cccc21 [KM-5-66] | 42 ± 6 µM |  | ~3 fold
